Like-named read-outs stand apart in the source and are kept apart here.
How the values were obtained:
human liver cathepsin L [1] = target: T1, human liver cathepsin L (Homo sapiens, UniProt P07711); assay: Cathepsin L assay, IC50 determination; type: biochemical
T1 construct: 8.7 ng/mL human liver cathepsin L (Calbiochem 219402); purchased Calbiochem 219402; host or cells: human liver
Method: Assay buffer consisted of 20 mM sodium acetate, 1 mM ethylenediaminetetraacetic acid (EDTA) and 5 mM cysteine, pH 5.5. Cathepsin L was incubated in assay buffer for 30 minutes prior to dispensing into wells to allow for efficient reduction of the active site cysteine required for full enzymatic activity.
Upon activation, cathepsin L (300 pM, 8.7 ng/mL) was incubated with 1 microM Z-Phe-Arg-AMC substrate (Sigma C9521) and test compound in […] of assay buffer for 1 hour at room temperature.
All reactions were performed in 20 mM sodium acetate buffer containing 5 mM cysteine and 1 mM EDTA, pH 5.5. Reaction progress was monitored using the Envision microplate reader. IC50 values were measured in triplicate.

[2] = Stability in DMSO and cathepsin L assay buffer; type: physicochemical
Source text: Some variability in IC50 values determined for Compound (iii) prompted us to explore the stability of both Compound No. 1 and Compound (iii) in solvents relevant to the bioassay.

Human liver cathepsin B = target: T2, Human liver cathepsin B (Homo sapiens, UniProt P07858); assay: Cathepsin B assay, IC50 determination; type: biochemical; details: for Selectivity Index (IC50 Cat B)/(IC50 Cat L): Cathepsin B vs cathepsin L
T2 construct: Human liver cathepsin B (Calbiochem 219362, 65 ng/mL); purchased Calbiochem 219362; host or cells: human liver
Method: (§1) Human spleen cathepsin S (Calbiochem 219344, 40 ng/mL) was assayed using 15 microM Z-Phe-Arg-AMC substrate. Human liver cathepsin B (Calbiochem 219362, 65 ng/mL) was assayed using 15 microM Z-Arg-Arg-AMC substrate (Bachem I-1135). All reactions were performed in 20 mM sodium acetate buffer containing 1 mM EDTA and 5 mM cysteine, pH 5.5.
(§2) Compounds were serially diluted in DMSO and transferred into a 96-well Corning 3686 assay microplate to give a 16-point two-fold serial dilution dose response ranging from 25 microM to 760 pM. Human liver cathepsin L (Calbiochem 219402) was activated by incubating with assay buffer for 30 min. Upon activation, cathepsin L (300 pM, 8.7 ng/mL) was incubated with 1 microM Z-Phe-Arg-AMC substrate (Sigma C9521) and test compound in […] of assay buffer for 1 hour at room temperature. Fluorescence of AMC released by enzyme-catalyzed hydrolysis of Z-Phe-Arg-AMC was read on a PerkinElmer Envision microplate reader (excitation 355 nm, emission 460 nm). Data were scaled using internal controls and fitted to a four-parameter logistic model (IDBS XLfit equation 205) to obtain IC50 values in triplicate.
(§3) Compound No. 1 was assayed for inhibition against papain and cathepsins B, G, K, S, and V. Papain from Carica papaya (Calbiochem 5125, 11 ng/mL), human cathepsin K (Calbiochem 342001, 35 ng/mL), human spleen cathepsin S (Calbiochem 219344, 40 ng/mL), and human cathepsin V (Calbiochem 219467, 39 ng/ml) were assayed using Z-Phe-Arg-AMC substrate at 20 μM, 20 μM, 15 μM, and 1 μM, respectively. Human liver cathepsin B (Calbiochem 219362, 65 ng/mL) was assayed using 15 μM Z-Arg-Arg-AMC substrate (Bachem I-1135). Human neutrophil cathepsin G (Calbiochem 219373, 4.2 μg/mL) was assayed using 15 μM Suc-Ala-Ala-Pro-Phe-AMC substrate (Sigma S9761). All reactions were performed in 20 mM sodium acetate buffer containing 5 mM cysteine and 1 mM EDTA, pH 5.5. Reaction progress was monitored using the Envision microplate reader. IC50 values were measured in triplicate.

Human spleen cathepsin S = target: T3, Human spleen cathepsin S (Homo sapiens, UniProt P25774); assay: Cathepsin S assay, IC50 determination; type: biochemical
T3 construct: Human spleen cathepsin S (Calbiochem 219344, 40 ng/mL); purchased Calbiochem 219344; host or cells: human spleen
Method: as §1, §2, §3

[3] = tested on: SARS coronavirus pseudotype; assay: microbe, parasite or virus in culture; type: cell-based; details: read-out: IC50, SARS-CoV pseudotype entry
Ebola virus pseudotype = assay: microbe, parasite or virus in culture; type: cell-based; details: read-out: IC50, Ebola virus pseudotype entry
[4] = tested on: Vesicular stomatitis virus (VSV); assay: microbe, parasite or virus in culture; type: cell-based; details: read-out: IC50, VSV entry (control)
zebrafish = assay: Zebrafish live organism toxicity assay; details: at 100 μM
human cathepsin L = human cathepsin L (Homo sapiens, UniProt P07711); assay: Preincubation studies, cathepsin L; type: biochemical; parameters: 8.7 ng/mL human liver cathepsin L (Calbiochem 219402); purchased Calbiochem 219402; host or cells: human liver; details: preincubation with enzyme 4 h; read-out: IC50 against human cathepsin L after 4 hours preincubation
Method: To establish the time-dependent mechanism of inhibition, enzyme and inhibitor were preincubated for various time points in a 96-well microplate prior to the addition of substrate to initiate the enzymatic reaction. 47.5 μL of cathepsin L (18.3 ng/mL) and 47.5 μL of Compound No. 1 at various concentrations in assay buffer were incubated up to 4 hours. Five μL of Z-Phe-Arg-AMC substrate were then added and the plate was monitored for AMC hydrolysis on the Envision fluorescent microplate reader.

human liver cathepsin L [5] = target: T1, human liver cathepsin L; assay: HTS of MLSMR library and confirmatory dose response against cathepsin L; type: biochemical; details: 10 μM compound
Method: 57,821 compounds from the NIH Molecular Libraries Small Molecule Repository (MLSMR) were screened against human liver cathepsin L. This screen was performed in 384-well Corning 3676 black, low-volume, non-binding surface (NBS)-coated polystyrene plates using a total reaction volume of 10 μL per well. Final well concentrations were: 10 μM compound (2% DMSO), 300 pM (8.7 ng/mL) human liver cathepsin L, 1 μM Z-FR-AMC substrate, and 20 mM sodium acetate buffer containing 1 mM EDTA and […], pH 5.5. Cathepsin L was activated in the assay buffer for 30 minutes prior to dispensing into wells. Assay plates were incubated at room temperature for one how and the fluorescence intensity of each well was read with a PerkinElmer Envision plate reader (Ex: 355 nm, Em: 460 nm) to measure hydrolysis of the AMC substrate.
Library samples containing 2,5-disubstituted oxadiazoles were identified as potent hits in a high throughput screen of the NIH Molecular Libraries Small Molecule Repository directed at discovering inhibitors of cathepsin L (Table I). […] Analyses by LC-MS of original library samples indicated the presence of a number of impurities, in addition to the oxadiazoles. Synthesis and bioassay of the probable impurities led to the identification of a thiocarbazate that likely originated via ring opening of the oxadiazole. […]

[6] = no preincubation of enzyme and inhibitor, read-out: IC50 against cathepsin L (no preincubation)

T3 sequence (P25774 115-331): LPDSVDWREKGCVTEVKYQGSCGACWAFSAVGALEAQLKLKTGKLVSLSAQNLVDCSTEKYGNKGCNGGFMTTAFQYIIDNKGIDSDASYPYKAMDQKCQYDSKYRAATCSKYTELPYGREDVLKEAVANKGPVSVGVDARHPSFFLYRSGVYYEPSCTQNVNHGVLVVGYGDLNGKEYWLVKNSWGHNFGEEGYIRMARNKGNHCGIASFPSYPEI
T1 sequence (P07711 114-288 limits assumed): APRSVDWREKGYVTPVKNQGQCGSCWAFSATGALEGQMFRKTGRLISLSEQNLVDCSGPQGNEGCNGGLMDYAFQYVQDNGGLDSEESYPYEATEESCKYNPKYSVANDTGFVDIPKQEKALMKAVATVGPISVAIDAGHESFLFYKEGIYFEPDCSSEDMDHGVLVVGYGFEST
T1 sequence (P07711 292-333 limits assumed): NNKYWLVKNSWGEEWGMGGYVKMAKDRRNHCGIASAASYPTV
Sequence of human cathepsin L (P07711 114-288 limits assumed): as the sequence (P07711 114-288 limits assumed) above
Sequence of human cathepsin L (P07711 292-333 limits assumed): as the sequence (P07711 292-333 limits assumed) above

Row | SMILES | IC50 (human liver cathepsin L [1]; Table 1, read-out: IC50 Cat L) [µM] | IC50 (Human liver cathepsin B; Table 1, read-out: IC50 Cat B) [µM] | IC50 (Human spleen cathepsin S; Table 1, read-out: IC50 Cat S) [µM] | further results
1 | CCc1ccccc1NC(=O)CSC(=O)NNC(=O)[C@@H](N)Cc1c[nH]c2ccccc12 [Compound (iii)] |  |  |  | IC50 (human liver cathepsin L [1]; [6]): 0.133 µM; stability in DMSO [2]: unstable
2 | CC(C)(C)OC(=O)N[C@@H](Cc1c[nH]c2ccccc12)C(=O)NNC(=O)OCC(=O)N1CCCc2ccccc21 [Compound No. 96] |  |  |  | Selectivity Index (human liver cathepsin L [1]; Table 18, Cathepsin L): 1.0; IC50 (human liver cathepsin L [1]; Tables 2-11, read-out: Cat L): 0.006 µM; IC50 (human liver cathepsin L [1]; [6]): 0.0069 µM; Selectivity Index (IC50 Cat B)/(IC50 Cat L) (Human liver cathepsin B; no preincubation): 724.6; Selectivity Index (IC50 Cat B)/(IC50 Cat L) (Human liver cathepsin B; no preincubation, listed as SID 46493575): 725; IC50 (Human liver cathepsin B; Table 18, Cathepsin B, human liver, no preincubation, read-out: IC50): 5.07 ± 0.883 µM; IC50 (Human liver cathepsin B; Tables 2-11, read-out: Cat B): 10.1 µM; IC50 (Human spleen cathepsin S; Tables 2-11, read-out: Cat S): 0.025 µM; IC50 ([3]; Severe acute respiratory syndrome coronavirus, HEK-293T): 0.273 ± 0.049 µM; IC50 [3]: ~0.2 µM; IC50 (Ebola virus pseudotype; Zaire ebolavirus, HEK-293T): 0.193 ± 0.039 µM; IC50 (Ebola virus pseudotype): ~0.2 µM; IC50 ([4]; Vesicular stomatitis virus): ≥ 10 µM; IC50 [4]: > 10 µM; toxicity to zebrafish (zebrafish): Non-toxic to zebrafish at 100 μM; IC50 (human cathepsin L): 0.0004 µM
3 | CCc1ccccc1NC(=O)CSC(=O)NNC(=O)[C@@H](NC(=O)OC(C)(C)C)C(C)C [Compound No. 21] | 0.66 | 0.87 | 3.74 | 
4 | CC(C)(C)OC(=O)N[C@@H](COCc1ccccc1)C(=O)NNC(=O)SCC(=O)NCCc1ccccc1 [Compound No. 51] | 0.51 | > 25 | 0.65 | 
5 | CC(C)[C@@H](CC(=O)NNC(=O)SCC(=O)N1CCCc2ccccc21)NC(=O)OC(C)(C)C [Compound No. 79] | > 25 | 15.8 | > 25 | 
6 | CCc1ccccc1NC(=O)CCC(=O)NNC(=O)[C@H](Cc1c[nH]c2ccccc12)NC(=O)OC(C)(C)C [Compound No. 113] |  |  |  | IC50 (human liver cathepsin L [1]; Tables 2-11, read-out: Cat L): ≥ 25 µM; IC50 (Human liver cathepsin B; Tables 2-11, read-out: Cat B): ≥ 25 µM; IC50 (Human spleen cathepsin S; Tables 2-11, read-out: Cat S): ≥ 25 µM
7 | CCc1ccccc1NC(=O)CSC(=O)NNC(=O)[C@H](Cc1ncc[nH]1)NC(=O)OC(C)(C)C [Compound No. 65] | > 25 | 13.7 | > 25 | 
8 | CCc1ccccc1NC(=O)CSC(=O)NNC(=O)[C@@H](C)COCc1ccc(OC)cc1 [Compound No. 72] | > 25 | > 25 | > 25 | 
9 | CC(C)C[C@H](NC(=O)[C@H]1O[C@@H]1C(=O)O)C(=O)NCCCCN=C(N)N [E-64] |  |  |  | HTS identification as cathepsin L inhibitor (in words) (human liver cathepsin L [5]): potent inhibitors of cathepsin L
10 | CCOC(=O)c1ccc(NC(=O)CSC(=O)NNC(=O)[C@H](Cc2ccc(OCc3ccccc3)cc2)NC(=O)OC(C)(C)C)cc1 [Compound No. 43] | 0.14 | > 25 | 1.08 | 
11 | CC(C)(C)OC(=O)N[C@@H](COCc1ccccc1)C(=O)NNC(=O)SCC(=O)Nc1ccccc1[N+](=O)[O-] [Compound No. 55] | 0.7 | 5.07 | 1.44 | 
12 | CC(C)CCNC(=O)[C@H](CC(C)C)NC(=O)[C@H]1O[C@@H]1C(=O)O [E-64c] |  |  |  | HTS identification as cathepsin L inhibitor (in words) (human liver cathepsin L [5]): potent inhibitors of cathepsin L
13 | CC(C)(C)OC(=O)N[C@@H](Cc1c[nH]c2ccccc12)C(=O)NNC(=O)SCC(=O)N1CCc2ccccc2C1 [Compound No. 12] | 0.019 | 3.25 | 0.53 | 
14 | CC(C)(C)OC(=O)N1CCC[C@H]1CC(=O)NNC(=O)SCC(=O)N1CCCc2ccccc21 [Compound No. 81] | > 25 | > 25 | > 25 | 
15 | CC(C)(C)OC(=O)N[C@@H](COCc1ccccc1)C(=O)NNC(=O)SCC(=O)N1CCCc2ccccc21 [Compound No. 47] | 1.51 | 13.2 | 2.64 | 
16 | CCOC(=O)c1ccc(NC(=O)CSC(=O)NNC(=O)[C@H](Cc2c[nH]c3ccccc23)NC(=O)OC(C)(C)C)cc1 [Compound No. 9] | 0.057 | > 25 | 0.58 | 
17 | CC(C)(C)OC(=O)N[C@@H](COCc1ccccc1)C(=O)NNC(=O)SCC(=O)NCCc1ccc(Br)cc1 [Compound No. 52] | 0.58 | > 25 | 0.91 | 
18 | CSCC[C@H](NC(=O)OC(C)(C)C)C(=O)NNC(=O)c1ccccc1 [Compound No. 116] |  |  |  | IC50 (human liver cathepsin L [1]; Tables 2-11, read-out: Cat L): ≥ 25 µM; IC50 (Human liver cathepsin B; Tables 2-11, read-out: Cat B): ≥ 25 µM; IC50 (Human spleen cathepsin S; Tables 2-11, read-out: Cat S): ≥ 25 µM
19 | CC(C)(C)OC(=O)N[C@@H](Cc1c[nH]c2ccccc12)C(=O)NNC(=O)SCC(=O)N1CCCc2ccccc21 [Compound No. 5] | 0.096 | 4.46 | 0.93 | 
20 | C[C@H](CO)C(=O)NNC(=O)SCC(=O)N1CCCc2ccccc21 [Compound No. 68] | > 25 | > 25 | > 25 | 
21 | CCc1ccccc1NC(=O)CSC(=O)NNC(=O)[C@@H](C)CO [Compound No. 69] | > 25 | > 25 | > 25 | 
22 | CC(C)(C)OC(=O)N[C@@H](Cc1c[nH]c2ccccc12)C(=O)NN [Compound No. 118] |  |  |  | IC50 (human liver cathepsin L [1]; Tables 2-11, read-out: Cat L): ≥ 25 µM; IC50 (Human liver cathepsin B; Tables 2-11, read-out: Cat B): ≥ 25 µM; IC50 (Human spleen cathepsin S; Tables 2-11, read-out: Cat S): ≥ 25 µM
